According to patent US20190242876A1, “GENETICALLY ENCODED CELL DEATH INDICATORS AND METHODS OF USE” (The J. David Gladstone Institutes, A Testamentary Trust …, priority 2016, published 2019):

Key:
Rat primary neurons [1] = experiment: KCl membrane depolarization of neurons expressing RGEDI-P2A-EGFP; assay type: cell-based; details: 10 mM KCl (FIG. 21D)
Experimental: FIG. 21A depicts representative images of individual neurons over the time course. […] Next, the RGEDI intensity was plotted as a percentage increase from baseline (t=0) (ie delta RGEDI/baseline RGEDI). Using the morphology as a readout, the time of death was determined for each neuron. […] FIG. 21D.

[2] = system: motor neurons of zebrafish larvae; experiment: Targeted neuronal ablation with MTZ in nitroreductase-expressing zebrafish; assay type: in vivo
Experimental: Briefly, zebrafish embryos were co-injected at 1-cell stage with mnx1:Gal4, UAS:GCaMP6f, and UAS:Nitroreductase-mCherry. Embryos were grown at 28.5° C. until 48 hours post fertilization (hpf), anaesthetized in tricaine, embedded in low-melting point agarose, and then imaged on a spinning disk confocal microscope. Images were acquired of the same motor neurons within the zebrafish at 0, 24 hours, and 48 hours after MTZ or DMSO was added to the media. Intensity of GCaMP6f was plotted as the change in fluorescence intensity from time point 0.
The GEDI reporter was also tested in skeletal muscle fiber. FIG. 13C. […] FIGS. 14A, 14B, and 22.

Rat primary neurons [3] = experiment: RGEDI/EGFP ratio after NaN3-induced acute death of neurons; assay type: cell-based
Experimental: ANOVA Tukey's ***p<0.001, ns=not significant.
Rat primary neurons were transfected with hsyn1:RGEDI-P2A-EGFP as described above and imaged at DIV10. […] A non-linear regression was fit to the NaN3+Ca^2+ time course and a half-life of RGEDI/EGFP signal increase was determined to be 5 minutes and 50 seconds. […] ANOVA Tukey comparison to 0 minutes of each condition, *** p<0.001, **** p<0.0001. […] FIG. 3.

[4] = system: rat primary cortical neurons; experiment: Glutamate exposure of neurons expressing RGEDI, survival by GEDI ratio; assay type: cell-based; details: within three hours of glutamate exposure
Text: Briefly, neurons expressing RGEDI were exposed to the neurotransmitter glutamate. […] Furthermore, features of neurons such as neurite area were identified as associated with neurons that are resistant to high Glutamate exposure. These studies indicate that GEDIs can be used for screening for drug resistant or drug sensitive cells and identifying physiological characteristics of those cells that may underlie their sensitivity or resistance.

[5] = system: rat primary cortical neurons; experiment: Toxicity of neurodegenerative disease proteins in neurons, cumulative hazard from GEDI ratio; assay type: cell-based; details: automated GEDI ratio, 8 time points
Experimental: Rat primary cortical neuron cultures were prepared from embryos (embryonic day 16-18) and co-transfected using Lipofectamine2000 (ThermoFisher Scientific, Carlsbad, Calif., USA) with 150 ng/well of hSyn1:mRuby-P2a-GCaMP (Addgene #50943) and either Htt^ex1-Q27 or Htt^ex1-Q97 (known to induce neurodegeneration) in a 96-well format. […] FIG. 17A. The GCaMP intensity was detected and plotted as a percentage increase from baseline (t=0) (i.e., delta GCaMP/baseline GCaMP). Using the morphology as a readout, the time of death was determined for each neuron.
To examine the changes in signal increase as a cell dies, rat primary cortical neurons expressing GCaMP6f, mRuby, and HttEx1-Q97 were examined overtime. […] Using time lapse imaging, it was observed that 0 out of 94,106 dead rat primary cortical neurons examined regenerated after elevated GEDI signal, indicating elevated GEDI signal is terminal. In addition, the ratio of GCaMP6f/mRuby signal from rat primary cortical neurons expressing HttEx1-Q97 and HttEx1-Q25 at 0, 24, 48, 72, 96, and 120 hours post transfection was determined. FIG. 1B, the horizontal line at 0.75 separates dead from live neurons. […] Similarly, human motor neurons differentiated from induced pluripotent stem cells were transfected with […] hSyn1:mRuby-P2a-GCaMP and imaged with robotic microscopy every 6 hours up to 12 hours. […]

## [Cl-].[K+] [KCl]
Rat primary neurons [1]
  excitation of RGEDI-P2A-EGFP signal: failed to excite

## Cc1ncc([N+](=O)[O-])n1CCO [MTZ, metronidazole]
[2]; 24 and 48 hours after addition, zebrafish larvae motor neurons, NTR-mCherry
  GCaMP expression: increased
[2]; zebrafish neurons co-expressing NTR-mVenus, versus DMSO
  RGEDI-P2a-3XtagBFP signal: signal increased

## [N-]=[N+]=[N-].[Na+] [NaN3]
Rat primary neurons [3]; 2% NaN3 in NBM with ~2 mM Ca^2+, compared to saline
  RGEDI/EGFP ratio: significantly increased
Rat primary neurons [3]; NaN3, neurons washed 3x and incubated in Ca2+ free PBS
  RGEDI/EGFP ratio: did not show a significant increase

## N[C@@H](CCC(=O)O)C(=O)O [glutamate]
[4]
  neuronal death: killed many of the cells

## TDP43: neurodegenerative disease protein transfected into neurons
[5]
  toxicity over time compared to control (cumulative hazard): increased toxicity

## α-synuclein
[5]
  toxicity over time compared to control (cumulative hazard): increased toxicity
